In data set [1] the test system is Mus musculus. As to the kind of experiment: Toxicity in mouse assessed as increase in bleeding time at 30 mg/kg, po. The arrangement: dose 30 mg/kg, route oral. To be noted: in vivo. The data set is classed as organism-based.
Data set [2] relates to Mus musculus. In words: Antithrombotic activity in mouse assessed as protection against collagen and adrenaline-induced hind limb paralysis at 30 mg/kg, po for 60 mins. Format: functional, Hindlimb.

As to `Cc1ccc(S(=O)(=O)N2C[C@H](Cc3ccccc3)N(S(=O)(=O)c3ccc(C)cc3)Cc3ccccc32)cc1`, the Activity amounted to 13% with Mus musculus [1] and 20% with Mus musculus [2].

As for `Cc1ccc(S(=O)(=O)N2Cc3ccccc3SC[C@@H]2Cc2ccc(OCc3ccccc3)cc2)cc1`, the figures for the Activity in the data set with Mus musculus [1] and in the data set with Mus musculus [2] were 28% and 10%, respectively.

As to `Cc1ccc(S(=O)(=O)N2Cc3ccccc3OC[C@@H]2C(C)C)cc1`, the results for the Activity in the data set on Mus musculus [1] and in the data set on Mus musculus [2] were 22% and 20%, respectively.

On to `COc1ccc2c(c1)CN(S(=O)(=O)c1ccc(C)cc1)[C@@H](CC(C)C)CO2`, for which the Activity in the data set with Mus musculus [1] came to 6%; with Mus musculus [2], 30%.

`COc1ccc2c(c1)CN(S(=O)(=O)c1ccc(C)cc1)[C@@H](Cc1c[nH]c3ccccc13)CO2`: the values for the Activity in the data set with Mus musculus [1] and in the data set with Mus musculus [2] were 12% and 20%, respectively.

Turning to `Cc1ccc(S(=O)(=O)N2Cc3ccccc3OC[C@@H]2Cc2ccccc2)cc1`, the Activity entry in the data set on Mus musculus [1] is on record as “Non-toxic”; in the data set on Mus musculus [2], 20%.

On to `Cc1ccc(S(=O)(=O)N2Cc3ccccc3OC[C@@H]2CC(C)C)cc1`, for which the values for the Activity in the data set with Mus musculus [1] and in the data set on Mus musculus [2] were 60% and 10%, respectively.

For `Cc1ccc(S(=O)(=O)N2Cc3ccccc3OC[C@@H]2Cc2c[nH]c3ccccc23)cc1`, the Activity in the data set with Mus musculus [1] stood at 33%; in the data set on Mus musculus [2] it was 40%.

`COc1cccc2c1OC[C@H](Cc1ccc(O)cc1)N(S(=O)(=O)c1ccc(C)cc1)C2`: the figures for the Activity with Mus musculus [1] and with Mus musculus [2] were 24% and 45%, respectively.

For `Cc1ccc(S(=O)(=O)N2Cc3ccccc3OC[C@@H]2C)cc1`, the figures for the Activity in the data set with Mus musculus [1] and with Mus musculus [2] were 25% and 20%, respectively.

Consider `Cc1ccc(S(=O)(=O)N2C[C@H](Cc3ccccc3)N(S(=O)(=O)c3ccc(C)cc3)CCc3ccccc32)cc1`, for which the Activity in the data set on Mus musculus [1] worked out at 22%; in the data set with Mus musculus [2], 20%.

`Cc1ccc(S(=O)(=O)N2CCc3ccccc3OC[C@@H]2Cc2ccc(O)cc2)cc1`: the Activity result is recorded as “Non-toxic” in the data set on Mus musculus [1] and 40% in the data set with Mus musculus [2].

Consider `Cc1ccc(S(=O)(=O)N2CCc3ccccc3OC[C@@H]2C)cc1`, for which the Activity entry in the data set on Mus musculus [1] was “Non-toxic”; in the data set with Mus musculus [2], 40%.

With `Cc1ccc(S(=O)(=O)N2C[C@H](Cc3ccc(OCc4ccccc4)cc3)N(S(=O)(=O)c3ccc(C)cc3)Cc3ccccc32)cc1`, the Activity in the data set with Mus musculus [1] came out at 4%; with Mus musculus [2] it was 20%.

Consider `Cc1ccc(S(=O)(=O)N2C[C@H](Cc3ccc(OCc4ccccc4)cc3)N(S(=O)(=O)c3ccc(C)cc3)CCc3ccccc32)cc1`, for which the Activity result was “Non-toxic” in the data set on Mus musculus [1] and 30% with Mus musculus [2].

As to `CC(=O)Oc1ccccc1C(=O)O` [ASPIRIN], the figures for the Activity with Mus musculus [1] and with Mus musculus [2] were 100% and 37%, respectively.

`Cc1ccc(S(=O)(=O)N2Cc3ccccc3OC[C@@H]2Cc2ccc(O)cc2)cc1`: the Activity result is recorded as “Non-toxic” in the data set on Mus musculus [1] and 0% in the data set with Mus musculus [2].

The values are drawn from ChEMBL document CHEMBL1153152, “Amino acid based enantiomerically pure 3-substituted benzofused heterocycles: A new class of antithrombotic agents” (Bioorg Med Chem Lett, 2010).
